Test results published in patent US9234000B2, “Benzylamine derivatives as inhibitors of plasma kallikrein” (KalVista Pharmaceuticals Limited, priority 2011, dated 2016).
Where two headings read alike, the source gives them in different places.

Columns and labels:
Human plasma kallikrein = Human plasma kallikrein (Homo sapiens (Human), UniProt P03952); assay: Determination of the IC50 for plasma kallikrein; type: biochemical; settings: 37° C., read-out: IC50 (human PKal)
Procedure, shortened: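 Residual activity (initial rate, absorbance at 410 nm) gave the IC50. Reactions at 37° C combined human plasma kallikrein, substrate H-DPro-Phe-Arg-AFC and a range of inhibitor concentrations.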

Human KLK1 = Human KLK1 (Homo sapiens (Human), UniProt P06870); assay: Determination of the IC50 for KLK1; type: biochemical; settings: Human KLK1, 37° C., substrate H-DVal-Leu-Arg-AFC
Procedure, shortened: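 hKLK1 + H-DVal-Leu-Arg-AFC, 37° C, varied cpd conc. Initial rate by A410 change → residual activity → IC50.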

[1] = fluorogenic substrate H-DPro-Phe-Arg-AFC

Human plasma kallikrein, sequence (P03952 391-638): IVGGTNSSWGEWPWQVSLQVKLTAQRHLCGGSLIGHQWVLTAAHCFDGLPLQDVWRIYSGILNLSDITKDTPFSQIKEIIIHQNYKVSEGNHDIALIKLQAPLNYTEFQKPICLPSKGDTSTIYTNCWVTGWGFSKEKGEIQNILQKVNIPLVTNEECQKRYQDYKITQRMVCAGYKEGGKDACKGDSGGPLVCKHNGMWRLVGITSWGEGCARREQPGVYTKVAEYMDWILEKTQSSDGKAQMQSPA
Human plasma kallikrein, sequence (P03952 20-390 partner): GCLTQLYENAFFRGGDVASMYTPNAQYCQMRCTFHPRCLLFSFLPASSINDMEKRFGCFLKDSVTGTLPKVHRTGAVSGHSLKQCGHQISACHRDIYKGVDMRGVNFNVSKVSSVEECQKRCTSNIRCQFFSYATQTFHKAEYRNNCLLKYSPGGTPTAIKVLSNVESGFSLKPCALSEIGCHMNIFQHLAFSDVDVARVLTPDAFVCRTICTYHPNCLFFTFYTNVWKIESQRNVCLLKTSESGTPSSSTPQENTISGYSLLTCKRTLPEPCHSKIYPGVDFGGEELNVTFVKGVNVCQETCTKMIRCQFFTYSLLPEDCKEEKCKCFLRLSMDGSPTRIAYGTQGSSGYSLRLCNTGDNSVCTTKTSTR
Human KLK1, sequence (P06870 25-262): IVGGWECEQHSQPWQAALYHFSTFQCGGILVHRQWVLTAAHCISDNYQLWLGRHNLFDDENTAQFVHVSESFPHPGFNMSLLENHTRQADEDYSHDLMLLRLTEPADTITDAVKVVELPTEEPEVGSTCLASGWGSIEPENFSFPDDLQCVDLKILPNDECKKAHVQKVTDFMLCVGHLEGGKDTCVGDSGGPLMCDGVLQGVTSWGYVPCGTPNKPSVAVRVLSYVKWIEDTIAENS

| SMILES | IC50 (Human plasma kallikrein; substrate H-DPro-Phe-Arg-AFC) [µM] | IC50 (Human KLK1; Table 13) [µM] | IC50 (Human plasma kallikrein; [1]) [µM] | IC50 (Human KLK1; Table 12) [µM] |
| --- | --- | --- | --- | --- |
| CCOc1ccc(C[C@@H](NC(=O)CNC(=O)c2ccccc2)C(=O)N[C@@H](Cc2ccccc2)C(=O)NCc2ccc(CN)cc2)cc1 [Example 98, N-{[(R)-1-[(S)-1-(4-Aminomethyl-benzylcarbamoyl)-2-phenyl-ethylcarbamoyl]-2-(4-ethoxy-phenyl)-ethylcarbamoyl]-methyl}-benzamide] | 0.576 | 5.1 | – | – |
| CC(C)C[C@@H](NC(=O)c1ccccc1)C(=O)N[C@@H](Cc1ccccc1)C(=O)NCc1ccc(CN)cc1 [Example 133, N-{(R)-1-[(S)-1-(4-Aminomethyl-benzylcarbamoyl)-2-phenyl-ethylcarbamoyl]-3-methyl-butyl}-benzamide] | 10 | > 10 | – | – |
| CCOc1ccc(C[C@@H](NC(=O)c2ccccc2)C(=O)N[C@@H](Cc2ccc(OC)cc2)C(=O)NCc2ccc(CN)cc2)cc1 [Example 146, N-[(R)-1-[(S)-1-(4-Aminomethyl-benzylcarbamoyl)-2-(4-methoxy-phenyl)-ethylcarbamoyl]-2-(4-ethoxy-phenyl)-ethyl]-benzamide] | 0.232 | > 10 | – | – |
| CCOc1ccc(C[C@@H](NC(=O)C2CC2)C(=O)N[C@@H](Cc2ccccc2)C(=O)NCc2ccc(CN)cc2)cc1 [Example 74, Cyclopropanecarboxylic acid [(R)-1-[(S)-1-(4-aminomethyl-benzylcarbamoyl)-2-phenyl-ethylcarbamoyl]-2-(4-ethoxy-phenyl)-ethyl]-amide] | 0.545 | > 10 | – | – |
| CCOc1ccc(C[C@@H](NC(=O)c2ccccc2)C(=O)N[C@@H](Cc2ccccc2F)C(=O)NCc2ccc(CN)cc2)cc1 [Example 180, N-[(R)-1-[(S)-1-(4-Aminomethyl-benzylcarbamoyl)-2-(2-fluoro-phenyl)-ethylcarbamoyl]-2-(4-ethoxy-phenyl)-ethyl]-benzamide] | 0.073 | > 10 | – | – |
| CCOc1ccc(C[C@@H](NC(=O)c2ccc(Cl)cc2)C(=O)N[C@@H](Cc2ccccn2)C(=O)NCc2ccc(CN)cc2)cc1 [Example 163, N-[(R)-1-[(S)-1-(4-Aminomethyl-benzylcarbamoyl)-2-pyridin-2-yl-ethylcarbamoyl]-2-(4-ethoxy-phenyl)-ethyl]-4-chloro-benzamide] | 0.064 | > 10 | – | – |
| CC(C)C[C@@H](NCC(=O)O)C(=O)N[C@@H](Cc1ccccc1)C(=O)NCc1ccc(CN)cc1 [Example 28, {(R)-1-[(S)-1-(4-Aminomethyl-benzylcarbamoyl)-2-phenyl-ethylcarbamoyl]-3-methyl-butylamino}-acetic acid] | – | – | 8.9 | > 10 |
| CCOc1ccc(C[C@@H](NC(=O)c2ccccc2)C(=O)N[C@@H](Cc2cccc(C(F)(F)F)c2)C(=O)NCc2ccc(CN)cc2)cc1 [Example 144, N-[(R)-1-[(S)-1-(4-Aminomethyl-benzylcarbamoyl)-2-(3-trifluoromethyl-phenyl)-ethylcarbamoyl]-2-(4-ethoxy-phenyl)-ethyl]-benzamide] | 0.34 | > 10 | – | – |
| CCOc1ccc(C[C@@H](NC(=O)c2ccco2)C(=O)N[C@@H](Cc2ccccc2)C(=O)NCc2ccc(CN)cc2)cc1 [Example 118, Furan-2-carboxylic acid [(R)-1-[(S)-1-(4-aminomethyl-benzylcarbamoyl)-2-phenyl-ethylcarbamoyl]-2-(4-ethoxy-phenyl)-ethyl]-amide] | 0.061 | > 10 | – | – |
| CCOc1ccc(C[C@@H](NC(=O)Nc2ccc(Cl)cc2)C(=O)N[C@@H](Cc2ccccc2)C(=O)NCc2ccc(CN)cc2)cc1 [Example 102, (R)-N-[(S)-1-(4-Aminomethyl-benzylcarbamoyl)-2-phenyl-ethyl]-2-[3-(4-chloro-phenyl)-ureido]-3-(4-ethoxy-phenyl)-propionamide] | 10 | 9 | – | – |
| CCOc1ccc(C[C@@H](C(=O)N[C@@H](Cc2ccccc2)C(=O)NCc2ccc(CN)cc2)N(C)C(=O)CC)cc1 [Example 66, (S)-N-(4-Aminomethyl-benzyl)-2-[(S)-3-(4-ethoxy-phenyl)-2-(methyl-propionyl-amino)-propionylamino]-3-phenyl-propionamide] | – | – | 10 | 8.4 |
| CCOc1ccc(C[C@@H](NC(=O)c2ccncc2)C(=O)N[C@@H](Cc2ccc(Cl)c(Cl)c2)C(=O)NCc2ccc(CN)cc2)cc1 [Example 171, N-[(R)-1-[(S)-1-(4-Aminomethyl-benzylcarbamoyl)-2-(3,4-dichloro-phenyl)-ethylcarbamoyl]-2-(4-ethoxy-phenyl)-ethyl]-isonicotinamide] | 0.123 | 9.4 | – | – |
| Cc1ccc(C[C@@H](NC(=O)c2ccccc2)C(=O)N[C@@H](Cc2ccccc2)C(=O)NCc2ccc(CN)cc2)cc1 [Example 135, N-{(R)-1-[(S)-1-(4-Aminomethyl-benzylcarbamoyl)-2-phenyl-ethylcarbamoyl]-2-p-tolyl-ethyl}-benzamide] | 0.424 | > 10 | – | – |
| CCOc1ccc(C[C@@H](NC(=O)c2nc(C)oc2C)C(=O)N[C@@H](Cc2ccccc2)C(=O)NCc2ccc(CN)cc2)cc1 [Example 113, 2,5-Dimethyl-oxazole-4-carboxylic acid [(R)-1-[(S)-1-(4-aminomethyl-benzylcarbamoyl)-2-phenyl-ethylcarbamoyl]-2-(4-ethoxy-phenyl)-ethyl]-amide] | 0.455 | > 10 | – | – |
| CCOc1ccc(C[C@@H](NC(=O)c2ccncc2)C(=O)N[C@@H](Cc2ccccc2)C(=O)NCc2ccc(CN)c(F)c2)cc1 [Example 167, N-[(R)-1-[(S)-1-(4-Aminomethyl-3-fluoro-benzylcarbamoyl)-2-phenyl-ethylcarbamoyl]-2-(4-ethoxy-phenyl)-ethyl]-isonicotinamide] | 0.08 | > 10 | – | – |
| NCc1ccc(CNC(=O)[C@H](Cc2ccccc2)NC(=O)[C@@H](Cc2ccc(O)cc2)NC(=O)c2ccccc2)cc1 [Example 129, N-[(R)-1-[(S)-1-(4-Aminomethyl-benzylcarbamoyl)-2-phenyl-ethylcarbamoyl]-2-(4-hydroxy-phenyl)-ethyl]-benzamide] | 10 | > 10 | – | – |
| COC(=O)CN[C@H](CC1CCCCC1)C(=O)N[C@@H](Cc1ccccc1)C(=O)NCc1ccc(CN)cc1 [Example 46, {(R)-1-[(S)-1-(4-Aminomethyl-benzylcarbamoyl)-2-phenyl-ethylcarbamoyl]-2-cyclohexyl-ethylamino}-acetic acid methyl ester] | – | – | 1.2 | > 10 |
| CCOc1ccc(C[C@@H](NC(=O)c2scnc2C)C(=O)N[C@@H](Cc2ccccc2)C(=O)NCc2ccc(CN)cc2)cc1 [Example 117, 4-Methyl-thiazole-5-carboxylic acid[(R)-1-[(S)-1-(4-aminomethyl-benzylcarbamoyl)-2-phenyl-ethylcarbamoyl]-2-(4-ethoxy-phenyl)-ethyl]-amide] | 0.048 | 6.1 | – | – |
| CCOc1ccc(C[C@@H](NC(=O)c2cnc3cc(Cl)ccc3c2)C(=O)N[C@@H](Cc2ccccc2)C(=O)NCc2ccc(CN)cc2)cc1 [Example 115, 7-Chloro-quinoline-3-carboxylic acid [(R)-1-[(S)-1-(4-aminomethyl-benzylcarbamoyl)-2-phenyl-ethylcarbamoyl]-2-(4-ethoxy-phenyl)-ethyl]-amide] | 0.417 | 9 | – | – |
| CCOc1ccc(C[C@@H](NC(=O)c2ccc(C)cc2)C(=O)N[C@@H](Cc2ccccn2)C(=O)NCc2ccc(CN)cc2)cc1 [Example 164, N-[(R)-1-[(S)-1-(4-Aminomethyl-benzylcarbamoyl)-2-pyridin-2-yl-ethylcarbamoyl]-2-(4-ethoxy-phenyl)-ethyl]-4-methyl-benzamide] | 0.05 | > 10 | – | – |
| CCOc1ccc(C[C@@H](NC(=O)c2cnc(C)s2)C(=O)N[C@@H](Cc2ccccc2)C(=O)NCc2ccc(CN)cc2)cc1 [Example 112, 2-Methyl-thiazole-5-carboxylic acid [(R)-1-[(S)-1-(4-aminomethyl-benzylcarbamoyl)-2-phenyl-ethylcarbamoyl]-2-(4-ethoxy-phenyl)-ethyl]-amide] | 0.298 | > 10 | – | – |
| CCOc1ccc(C[C@@H](NC(=O)Nc2ccccc2)C(=O)N[C@@H](Cc2ccccc2)C(=O)NCc2ccc(CN)cc2)cc1 [Example 69, (R)-N-[(S)-1-(4-Aminomethyl-benzylcarbamoyl)-2-phenyl-ethyl]-3-(4-ethoxy-phenyl)-2-(3-phenyl-ureido)-propionamide] | 0.621 | > 10 | – | – |
| CCOc1ccc(C[C@@H](NC(=O)CC(F)(F)F)C(=O)N[C@@H](Cc2ccccc2)C(=O)NCc2ccc(CN)cc2)cc1 [Example 109, N-[(R)-1-[(S)-1-(4-Aminomethyl-benzylcarbamoyl)-2-phenyl-ethylcarbamoyl]-2-(4-ethoxy-phenyl)-ethyl]-3,3,3-trifluoro-propionamide] | 0.155 | > 10 | – | – |
| CCOc1ccc(C[C@@H](NC(=O)c2ccc(C)nc2)C(=O)N[C@@H](Cc2ccccc2)C(=O)NCc2ccc(CN)cc2)cc1 [Example 104, N-[(R)-1-[(S)-1-(4-Aminomethyl-benzylcarbamoyl)-2-phenyl-ethylcarbamoyl]-2-(4-ethoxy-phenyl)-ethyl]-6-methyl-nicotinamide] | 0.159 | > 10 | – | – |
| CCOc1ccc(C[C@@H](NC(=O)c2cc(C)nn2C)C(=O)N[C@@H](Cc2ccccc2)C(=O)NCc2ccc(CN)cc2)cc1 [Example 82, 2,5-Dimethyl-2H-pyrazole-3-carboxylic acid [(R)-1-[(S)-1-(4-aminomethyl-benzylcarbamoyl)-2-phenyl-ethylcarbamoyl]-2-(4-ethoxy-phenyl)-ethyl]-amide] | 0.539 | > 10 | – | – |
